According to PubChem BioAssay (NCI):
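Method: 48-hour compound exposure of cells in 96-well plates, five concentrations, linear interpolation of endpoints. TGI denotes the concentration required for complete inhibition of growth.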

Columns and labels:
Assay in all cases: growth of human tumour cells (NCI), 48 h
786-0 renal = tested on: 786-0 renal
A549 NSCLC = tested on: A549 NSCLC
ACHN renal = tested on: ACHN renal
CCRF-CEM leukemia = tested on: CCRF-CEM leukemia
COLO 205 colon = tested on: COLO 205 colon
DU-145 prostate = tested on: DU-145 prostate
EKVX NSCLC = tested on: EKVX NSCLC
HCC-2998 colon = tested on: HCC-2998 colon
HCT-116 colon = tested on: HCT-116 colon
HCT-15 colon = tested on: HCT-15 colon
HL-60(TB) leukemia = tested on: HL-60(TB) leukemia
HOP-62 NSCLC = tested on: HOP-62 NSCLC
HOP-92 NSCLC = tested on: HOP-92 NSCLC
HS 578T breast = tested on: HS 578T breast
HT29 colon = tested on: HT29 colon
IGROV1 ovarian = tested on: IGROV1 ovarian
K-562 leukemia = tested on: K-562 leukemia
KM12 colon = tested on: KM12 colon
LOX IMVI melanoma = tested on: LOX IMVI melanoma
M14 melanoma = tested on: M14 melanoma
MALME-3M melanoma = tested on: MALME-3M melanoma
MCF7 breast = tested on: MCF7 breast
MDA-MB-231 breast = tested on: MDA-MB-231 breast
MDA-MB-435 = tested on: MDA-MB-435
MDA-N = tested on: MDA-N
MOLT-4 leukemia = tested on: MOLT-4 leukemia
NCI-H226 lung = tested on: NCI-H226 lung
NCI-H23 lung = tested on: NCI-H23 lung
NCI-H460 lung = tested on: NCI-H460 lung
NCI-H522 lung = tested on: NCI-H522 lung
NCI/ADR-RES ovarian = tested on: NCI/ADR-RES ovarian
OVCAR-3 ovarian = tested on: OVCAR-3 ovarian
OVCAR-4 ovarian = tested on: OVCAR-4 ovarian
OVCAR-5 ovarian = tested on: OVCAR-5 ovarian
OVCAR-8 ovarian = tested on: OVCAR-8 ovarian
PC-3 prostate = tested on: PC-3 prostate
RPMI-8226 leukemia = tested on: RPMI-8226 leukemia
RXF 393 renal = tested on: RXF 393 renal
SF-268 CNS = tested on: SF-268 CNS
SF-295 CNS = tested on: SF-295 CNS
SF-539 CNS = tested on: SF-539 CNS
SK-MEL-2 melanoma = tested on: SK-MEL-2 melanoma
SK-MEL-28 melanoma = tested on: SK-MEL-28 melanoma
SK-MEL-5 melanoma = tested on: SK-MEL-5 melanoma
SK-OV-3 ovarian = tested on: SK-OV-3 ovarian
SN12C renal = tested on: SN12C renal
SNB-19 CNS = tested on: SNB-19 CNS
SNB-75 CNS = tested on: SNB-75 CNS
SR leukemia = tested on: SR leukemia
SW-620 colon = tested on: SW-620 colon
T-47D breast = tested on: T-47D breast
TK-10 renal = tested on: TK-10 renal
U251 CNS = tested on: U251 CNS
UACC-257 melanoma = tested on: UACC-257 melanoma
UACC-62 melanoma = tested on: UACC-62 melanoma
UO-31 renal = tested on: UO-31 renal
A498 renal = tested on: A498 renal
CAKI-1 renal = tested on: CAKI-1 renal

Measured: TGI

Cc1cc(C23OC4COC(C)(C)OC4C2OC(C)(C)O3)nc2ccccc12 (stereo unspecified)
> 100 µM: 786-0 renal | A549 NSCLC | ACHN renal | CCRF-CEM leukemia | COLO 205 colon | DU-145 prostate | EKVX NSCLC | HCC-2998 colon | HCT-116 colon | HCT-15 colon | HL-60(TB) leukemia | HOP-62 NSCLC | HOP-92 NSCLC | HS 578T breast | HT29 colon | IGROV1 ovarian | K-562 leukemia | KM12 colon | LOX IMVI melanoma | M14 melanoma | MALME-3M melanoma | MCF7 breast | MDA-MB-231 breast | MDA-MB-435 | MDA-N | MOLT-4 leukemia | NCI-H226 lung | NCI-H23 lung | NCI-H460 lung | NCI-H522 lung | NCI/ADR-RES ovarian | OVCAR-3 ovarian | OVCAR-4 ovarian | OVCAR-5 ovarian | OVCAR-8 ovarian | PC-3 prostate | RPMI-8226 leukemia | RXF 393 renal | SF-268 CNS | SF-295 CNS | SF-539 CNS | SK-MEL-2 melanoma | SK-MEL-28 melanoma | SK-MEL-5 melanoma | SK-OV-3 ovarian | SN12C renal | SNB-19 CNS | SNB-75 CNS | SR leukemia | SW-620 colon | T-47D breast | TK-10 renal | U251 CNS | UACC-257 melanoma | UACC-62 melanoma | UO-31 renal

CC(C)C(O)(C(=O)OCN1C(=O)C2C3C=CC(C2C1=O)C1C2C(=O)N(COC(=O)C(O)(C(C)C)C(C)O)C(=O)C2C31)C(C)O (stereo unspecified)
> 100 µM: 786-0 renal | A498 renal | A549 NSCLC | ACHN renal | CAKI-1 renal | CCRF-CEM leukemia | COLO 205 colon | DU-145 prostate | EKVX NSCLC | HCC-2998 colon | HCT-116 colon | HCT-15 colon | HL-60(TB) leukemia | HOP-62 NSCLC | HS 578T breast | HT29 colon | IGROV1 ovarian | K-562 leukemia | KM12 colon | M14 melanoma | MALME-3M melanoma | MCF7 breast | MDA-MB-231 breast | MDA-MB-435 | MDA-N | MOLT-4 leukemia | NCI-H226 lung | NCI-H23 lung | NCI-H460 lung | NCI-H522 lung | NCI/ADR-RES ovarian | OVCAR-3 ovarian | OVCAR-4 ovarian | OVCAR-5 ovarian | OVCAR-8 ovarian | PC-3 prostate | RPMI-8226 leukemia | RXF 393 renal | SF-268 CNS | SF-295 CNS | SF-539 CNS | SK-MEL-2 melanoma | SK-MEL-28 melanoma | SK-MEL-5 melanoma | SK-OV-3 ovarian | SN12C renal | SNB-19 CNS | SNB-75 CNS | SR leukemia | SW-620 colon | T-47D breast | TK-10 renal | U251 CNS | UACC-62 melanoma | UO-31 renal
